According to patent US20250154127A1, “BICYCLIC HETEROARYL COMPOUNDS AND USES THEREOF” (ETERN BIOPHARMA (SHANGHAI) CO., LTD., priority 2022, published 2025):

Columns and labels:
[1] = molecular target: TEAD1(210-426) binding to YAP(50-100) (Homo sapiens, UniProt P28347); test: TR-FRET Assay for TEAD1(210-426) Binding to YAP(50-100); settings: His-TEAD 10 nM, YAP-Biotin peptide 50 nM
Summary of the method: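 10 nM His-TEAD1 preincubated 30 min at room temperature with compound (3-fold dilutions, 12 points, 1% DMSO), then 50 nM biotin-YAP peptide added.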

MSTO-211H cells = test: Proliferation Assay (CellTiter-Glo Luminescent Cell Viability Assay); assay type: cell-based; settings: Homo sapiens, 96 hours treatment
Summary of the method: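 MSTO-211H cells, 1,500/well in RPMI 1640 with 10% FBS, plated overnight, then treated 96 h with 9-point 3-fold compound series in duplicate (DMSO below 0.5%). Viability by CellTiter-Glo luminescence; inhibition relative to DMSO wells, IC50 by four-parameter fit.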

Sequence of TEAD1(210-426) binding to YAP(50-100) (P28347 209-426): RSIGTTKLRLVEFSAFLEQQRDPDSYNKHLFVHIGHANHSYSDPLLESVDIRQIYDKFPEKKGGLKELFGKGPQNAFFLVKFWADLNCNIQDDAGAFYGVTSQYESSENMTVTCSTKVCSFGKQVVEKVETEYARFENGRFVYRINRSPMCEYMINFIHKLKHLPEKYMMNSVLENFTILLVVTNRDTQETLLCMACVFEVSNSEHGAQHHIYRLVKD

IC50 [1] | Structure (SMILES) | IC50 (MSTO-211H cells)
≤ 0.1 µM | CNc1ccnc(Cn2ccc(-c3nn(-c4ccc(C(F)(F)F)cc4)c4c(F)cccc34)cc2=O)n1 [Compound 129, 4-(7-fluoro-1-(4-(trifluoromethyl)phenyl)-1H-indazol-3-yl)-1-((4-(methylamino)pyrimidin-2-yl)methyl)pyridin-2(1H)-one] | ≤ 1 µM
≤ 0.1 µM | CNc1nccc(Cn2ccc(-c3nn(-c4ccc(C(F)(F)F)cc4)c4ccc(F)cc34)cc2=O)n1 [Compound 140, 4-(5-fluoro-1-(4-(trifluoromethyl)phenyl)-1H-indazol-3-yl)-1-((2-(methylamino)pyrimidin-4-yl)methyl)pyridin-2(1H)-one] | ≤ 1 µM
≤ 0.1 µM | CNc1nccc(Cn2ccc(-c3nn(-c4ccc(C(F)(F)F)cc4)c4cc(F)ccc34)cc2=O)n1 [Compound 141, 4-(6-fluoro-1-(4-(trifluoromethyl)phenyl)-1H-indazol-3-yl)-1-((2-(methylamino)pyrimidin-4-yl)methyl)pyridin-2(1H)-one] | ≤ 1 µM
0.1 to 1 µM | CNc1nccc(Cn2ccc(-c3nn(-c4ccc(C(F)(F)F)cc4)c4c(OC)cccc34)cc2=O)n1 [Compound 142, 4-(7-methoxy-1-(4-(trifluoromethyl)phenyl)-1H-indazol-3-yl)-1-((2-(methylamino)pyrimidin-4-yl)methyl)pyridin-2(1H)-one] | ≤ 1 µM
0.1 to 1 µM | CNc1nccc(Cn2ccc(-c3nn(-c4ccc(C(F)(F)F)cc4)c4c(C)cccc34)cc2=O)n1 [Compound 143, 4-(7-methyl-1-(4-(trifluoromethyl)phenyl)-1H-indazol-3-yl)-1-((2-(methylamino)pyrimidin-4-yl)methyl)pyridin-2(1H)-one] | ≤ 1 µM
≤ 0.1 µM | CNc1nccc(Cn2ccc(-c3nn(-c4ccc(OC(F)(F)F)cc4)c4c(F)cccc34)cc2=O)n1 [Compound 145, 4-(7-fluoro-1-(4-(trifluoromethoxy)phenyl)-1H-indazol-3-yl)-1-((2-(methylamino)pyrimidin-4-yl)methyl)pyridin-2(1H)-one] | ≤ 1 µM
≤ 0.1 µM | O=c1cc(-c2nn(-c3ccc(C(F)(F)F)cc3)c3c(Cl)cccc23)ccn1Cc1ccnc(NCCO)n1 [Compound 148, 4-(7-chloro-1-(4-(trifluoromethyl)phenyl)-1H-indazol-3-yl)-1-((2-((2hydroxyethyl)amino)pyrimidin-4-yl)methyl)pyridin-2(1H)-one] | ≤ 1 µM
≤ 0.1 µM | O=c1cc(-c2nn(-c3ccc(C(F)(F)F)cc3)c3c(F)cccc23)ccn1Cc1ccnc(Cl)n1 [Compound 157, 1-((2-chloropyrimidin-4-yl)methyl)-4-(7-fluoro-1-(4-(trifluoromethyl)phenyl)-1H-indazol-3-yl)pyridin-2(1H)-one] | ≤ 1 µM
≤ 0.1 µM | CNc1nccc(Cn2ccc(-c3nn(-c4ccc(C(F)(F)F)cc4)c4cccc(F)c34)cc2=O)n1 [Compound 158, 4-(1-(4-((difluoro-13-methyl)-12-fluoranyl)phenyl)-4-fluoro-1H-indazol-3-yl)-1-((2-(methylamino)pyrimidin-4-yl)methyl)pyridin-2(1H)-one] | ≤ 1 µM

The remaining lines, values behind:

Structure (SMILES) | IC50 [1] | IC50 (MSTO-211H cells)
CNc1nccc([C@@H](C)n2ccc(-c3nn(-c4ccc(C(F)(F)F)cc4)c4ncccc34)cc2=O)n1 [Compound 130, (R)-1-(1-(2-(methylamino)pyrimidin-4-yl)ethyl)-4-(1-(4-(trifluoromethyl)phenyl)-1H-pyrazolo[3,4-b]pyridin-3-yl)pyridin-2(1H)-one] | 0.1 to 1 µM | ≤ 1 µM
CNc1nccc([C@H](C)n2ccc(-c3nn(-c4ccc(C(F)(F)F)cc4)c4ncccc34)cc2=O)n1 [Compound 131, (S)-1-(1-(2-(methylamino)pyrimidin-4-yl)ethyl)-4-(1-(4-(trifluoromethyl)phenyl)-1H-pyrazolo[3,4-b]pyridin-3-yl)pyridin-2(1H)-one] | ≤ 0.1 µM | ≤ 1 µM
O=c1cc(-c2nc(-c3ccc(C(F)(F)F)cc3)n3ccccc23)ccn1Cc1ccnc(OCCO)n1 [Compound 132, 1-((2-(2-hydroxyethoxy)pyrimidin-4-yl)methyl)-4-(3-(4-(trifluoromethyl)phenyl)imidazo[1,5-a]pyridin-1-yl)pyridin-2(1H)-one] | ≤ 0.1 µM | ≤ 1 µM
O=c1cc(-c2nn(-c3ccc(C(F)(F)F)cc3)c3c(F)cccc23)ccn1Cc1ccnc(OCCO)n1 [Compound 133, 4-(7-fluoro-1-(4-(trifluoromethyl)phenyl)-1H-indazol-3-yl)-1-((2-(2-hydroxyethoxy)pyrimidin-4-yl)methyl)pyridin-2(1H)-one] | ≤ 0.1 µM | ≤ 1 µM
COCCOc1nccc(Cn2ccc(-c3nn(-c4ccc(C(F)(F)F)cc4)c4c(F)cccc34)cc2=O)n1 [Compound 134, 4-(7-fluoro-1-(4-(trifluoromethyl)phenyl)-1H-indazol-3-yl)-1-((2-(2-methoxyethoxy)pyrimidin-4-yl)methyl)pyridin-2(1H)-one] | ≤ 0.1 µM | ≤ 1 µM
CNc1nccc(Cn2ccc(-n3nc(-c4ccc(C(F)(F)F)cc4)c4c(F)cccc43)cc2=O)n1 [Compound 135, 4-(4-fluoro-3-(4-(trifluoromethyl)phenyl)-1H-indazol-1-yl)-1-((2-(methylamino)pyrimidin-4-yl)methyl)pyridin-2(1H)-one] | ≤ 0.1 µM | ≤ 1 µM
O=c1cc(-n2nc(-c3ccc(C(F)(F)F)cc3)c3c(F)cccc32)ccn1Cc1ccnc(OCCO)n1 [Compound 136, 4-(4-fluoro-3-(4-(trifluoromethyl)phenyl)-1H-indazol-1-yl)-1-((2-(2-hydroxyethoxy)pyrimidin-4-yl)methyl)pyridin-2(1H)-one] | ≤ 0.1 µM | ≤ 1 µM
COCCOc1nccc(Cn2ccc(-n3nc(-c4ccc(C(F)(F)F)cc4)c4c(F)cccc43)cc2=O)n1 [Compound 137, 4-(4-fluoro-3-(4-(trifluoromethyl)phenyl)-1H-indazol-1-yl)-1-((2-(2-methoxyethoxy)pyrimidin-4-yl)methyl)pyridin-2(1H)-one] | ≤ 0.1 µM | ≤ 1 µM
CN(CCO)c1nccc(Cn2ccc(-c3nn(-c4ccc(C(F)(F)F)cc4)c4c(F)cccc34)cc2=O)n1 [Compound 138, 4-(7-fluoro-1-(4-(trifluoromethyl)phenyl)-1H-indazol-3-yl)-1-((2-((2-hydroxyethyl)(methyl)amino)pyrimidin-4-yl)methyl)pyridin-2(1H)-one] | 0.1 to 1 µM | ≤ 1 µM
CN(CCO)c1nccc(Cn2ccc(-n3nc(-c4ccc(C(F)(F)F)cc4)c4c(F)cccc43)cc2=O)n1 [Compound 139, 4-(4-fluoro-3-(4-(trifluoromethyl)phenyl)-1H-indazol-1-yl)-1-((2-((2-hydroxyethyl)(methyl)amino)pyrimidin-4-yl)methyl)pyridin-2(1H)-one] | ≤ 0.1 µM | ≤ 1 µM
CNc1nccc(Cn2ccc(-c3nn(-c4ccc(Cl)cc4)c4c(F)cccc34)cc2=O)n1 [Compound 146, 4-(1-(4-chlorophenyl)-7-fluoro-1H-indazol-3-yl)-1-((2-(methylamino)pyrimidin-4-yl)methyl)pyridin-2(1H)-one] | ≤ 0.1 µM | ≤ 1 µM
COCCN(C)c1nccc(Cn2ccc(-c3nn(-c4ccc(C(F)(F)F)cc4)c4c(F)cccc34)cc2=O)n1 [Compound 147, 4-(7-fluoro-1-(4-(trifluoromethyl)phenyl)-1H-indazol-3-yl)-1-((2-((2-methoxyethyl)(methyl)amino)pyrimidin-4-yl)methyl)pyridin-2(1H)-one] | ≤ 0.1 µM | ≤ 1 µM
CNc1nccc(Cn2ccc(-c3nn(-c4ccc(C5CC5)cc4)c4c(F)cccc34)cc2=O)n1 [Compound 149, 4-(1-(4-cyclopropylphenyl)-7-fluoro-1H-indazol-3-yl)-1-((2-(methylamino)pyrimidin-4-yl)methyl)pyridin-2(1H)-one] | ≤ 0.1 µM | ≤ 1 µM
COCCNc1nccc(Cn2ccc(-c3nn(-c4ccc(OC(F)(F)F)cc4)c4c(F)cccc34)cc2=O)n1 [Compound 150, 4-(7-fluoro-1-(4-(trifluoromethoxy)phenyl)-1H-indazol-3-yl)-1-((2-((2-methoxyethyl)amino)pyrimidin-4-yl)methyl)pyridin-2(1H)-one] | ≤ 0.1 µM | ≤ 1 µM
O=c1cc(-c2nn(-c3ccc(OC(F)(F)F)cc3)c3c(F)cccc23)ccn1Cc1ccnc(NCCO)n1 [Compound 151, 4-(7-fluoro-1-(4-(trifluoromethoxy)phenyl)-1H-indazol-3-yl)-1-((2-((2-hydroxyethyl)amino)pyrimidin-4-yl)methyl)pyridin-2(1H)-one] | ≤ 0.1 µM | ≤ 1 µM
CNc1nccc(Cn2ccc(-c3nn(-c4ccc(C5COC5)cc4)c4c(F)cccc34)cc2=O)n1 [Compound 152] | ≤ 0.1 µM | ≤ 1 µM
O=c1cc(-c2nn(-c3ccc(C(F)(F)F)cc3)c3cccc(F)c23)ccn1Cc1ccnc(OCCO)n1 [Compound 153, 4-(4-fluoro-1-(4-(trifluoromethyl)phenyl)-1H-indazol-3-yl)-1-((2-(2-hydroxyethoxy)pyrimidin-4-yl)methyl)pyridin-2(1H)-one] | ≤ 0.1 µM | ≤ 1 µM
COCCOc1nccc(Cn2ccc(-c3nn(-c4ccc(C(F)(F)F)cc4)c4cccc(F)c34)cc2=O)n1 [Compound 154, 4-(4-fluoro-1-(4-(trifluoromethyl)phenyl)-1H-indazol-3-yl)-1-((2-(2-methoxyethoxy)pyrimidin-4-yl)methyl)pyridin-2(1H)-one] | ≤ 0.1 µM | ≤ 1 µM
COCCN(C)c1nccc(Cn2ccc(-c3nn(-c4ccc(C(F)(F)F)cc4)c4cccc(F)c34)cc2=O)n1 [Compound 155, 4-(4-fluoro-1-(4-(trifluoromethyl)phenyl)-1H-indazol-3-yl)-1-((2-((2-methoxyethyl)(methyl)amino)pyrimidin-4-yl)methyl)pyridin-2(1H)-one] | 0.1 to 1 µM | ≤ 1 µM
